By IC50 is commonly meant the midpoint of a concentration-inhibition curve.

Among the data in US11325908B2, “CaMKII inhibitors and uses thereof” (The Johns Hopkins University, priority 2014, dated 2022) are IC50 values, retold here.

This assay deals with CaMKIIδ (Homo sapiens (Human), UniProt Q13557). As to the kind of experiment: In vitro CaMKIIδ activity assay (coupled assay measuring ADP released, AC3 peptide substrate). The settings on record: full length C-terminal His/Gln tagged CaMKIIδ construct, 16 nM enzyme, 25° C., compound 0.5 nM to 10 uM, duplicate. Type of assay: biochemical. As to the method: An exemplary procedure for the in vitro CaMKIIδ inhibition assay, which can be used to determine the inhibitory action of compounds of the invention toward CaMKII, follows. The procedure is taken from Chao L H, et al., (2010) Nat Struct Mol Biol. 17(3): 264-272, which is incorporated herein by reference in its entirety.
The inhibition of CaMKII activity was evaluated using a coupled assay measuring ADP released following ATP hydrolysis and phosphor-transfer to the peptide substrate AC3 (KKALHRQETVDAL; SEQ ID NO: 1) (1). A full length, C-terminal His/Gln tagged CaMKIIδ construct was used (sequence in Table 3 below).
Compounds were added in 5 uL volume to wells in UV transparent 96-well plates (1/2 area well size). The final compound concentrations tested ranged from 0.5 nM to 10 uM). Assays were performed in duplicate. CaMKIIδ is added to at a final concentration of 16 nM to a mixture containing 100 mM Tris (pH 7.5), 150 mM KCl, 0.27 mM EGTA, 1.3 mM PEP, 0.2 mg/ml AC3, 6.9% (v/v) PK/LDH mixture (Sigma P0294), 0.38 mM NADH and kept on ice. 72 uL of the enzyme mixture was added to the wells containing compounds and the plate was shaken briefly and kept on ice. The assay was initiated by adding 23 uL of a mixture containing 100 mM Tris (pH 7.5), 150 mM KCl, 1.7 mM CaCl2, 48 mM MgCl2, 0.35 mM ATP and 6.7 ug/mL calmodulin. The rate of ADP released was measured as the rate of absorbance decrease at […] at 25° C. and plotted against the log of the compound concentration (FIG. 1). IC50 data were fitted using GraphPad Prism software.

As to `c1cc(-c2ccnc3[nH]c4ccccc4c23)cc(N2CCNCC2)c1` [Compound I-1, 4-(3-(piperazin-1-yl)phenyl)-9H-pyrido[2,3-b]indole], the IC50 lay within 50 to 250 nM.
For the compound `N=C(N)Nc1cccc(-c2ccnc3[nH]c4ccccc4c23)c1` [Compound I-4], the IC50 fell in the range of 50 to 250 nM.
Consider `N=C(N)NCc1cccc(-c2ccnc3[nH]c4ccccc4c23)c1` [Compound I-5], for which the 50% inhibitory concentration (IC50) was in the range of 250 to 1000 nM.
Consider `Nc1cccc(-c2ccnc3[nH]c4ccccc4c23)c1` [Compound I-6], for which the concentration for half-maximal inhibition (IC50) lay within 50 to 250 nM.
